Test results as given in PubChem BioAssay AID248 (DTP/NCI, 2004).
Where “and” joins values, the source holds several entries; their conditions need not be identical. Identical values can stand only once. Inconclusive results and toxic doses are left out. Rule as the data show it: active = T/C of 150% or more; inactive = T/C below 125%.

Test system: L1210 leukemia ip in BDF1 mice, survival T/C
Experiment: NCI In Vivo Anticancer Drug Screen. Data for tumor model L1210 Leukemia (intraperitoneal) in B6D2F1 (BDF1) mice
Conditions: endpoint: mean survival time, higher = longer survival
In short: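 Each compound was tested against a transplantable tumor grown in mice. The endpoint was survival, with treated animals benchmarked against vehicle controls as a simple ratio.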

[1] = dose: 100.0 mg/kg/injection, schedule: Q01DX001 (ip), vehicle: carboxymethylcellulose (CMC)
[2] = dose: 200.0 mg/kg/injection, schedule: Q01DX001 (ip), vehicle: carboxymethylcellulose (CMC)
[3] = dose: 400.0 mg/kg/injection, schedule: Q01DX001 (ip), vehicle: carboxymethylcellulose (CMC)
[4] = dose: 100.0 mg/kg/injection, schedule: Q04DX003 (ip), vehicle: Klucel (hydroxypropylcellulose) (HPC)
[5] = dose: 100.0 mg/kg/injection, schedule: Q04DX002 (ip), vehicle: Klucel (hydroxypropylcellulose) (HPC)
[6] = dose: 100.0 mg/kg/injection, schedule: Q01DX001 (ip), vehicle: saline
[7] = dose: 200.0 mg/kg/injection, schedule: Q01DX001 (ip), vehicle: saline
[8] = dose: 400.0 mg/kg/injection, schedule: Q01DX001 (ip), vehicle: saline
[9] = dose: 50.0 mg/kg/injection, schedule: Q04DX002 (ip), vehicle: Klucel (hydroxypropylcellulose) (HPC)

Measured: T/C

CCOC(=O)CN(C)c1ccccc1
inactive: dose: 50.0 mg/kg/injection, schedule: Q01DX001 (ip), vehicle: carboxymethylcellulose (CMC) 104 % of control | [1] 107 % of control | [2] 93 % of control | [3] 107 % of control

Cc1cc(Br)cc(C(=O)Cl)c1O
inactive: dose: 100.0 mg/kg/injection, schedule: Q04DX002 (ip), vehicle: saline with Tween-80 92 % of control | dose: 200.0 mg/kg/injection, schedule: Q04DX002 (ip), vehicle: saline with Tween-80 96 % of control | dose: 400.0 mg/kg/injection, schedule: Q04DX002 (ip), vehicle: saline with Tween-80 100 % of control

CCC[N+]1(C)CCOCC1
inactive: dose: 75.0 mg/kg/injection, schedule: Q01DX001 (ip), vehicle: saline 94 % of control and 89 % of control

Sc1ccccc1
inactive: dose: 100.0 mg/kg/injection, schedule: Q04DX003 (ip), vehicle: saline with Tween-80 92 % of control | dose: 200.0 mg/kg/injection, schedule: Q04DX003 (ip), vehicle: saline with Tween-80 99 % of control | dose: 400.0 mg/kg/injection, schedule: Q04DX003 (ip), vehicle: saline with Tween-80 94 % of control

CCN(CC)S(=O)(=O)c1ccc(C(=O)O)cc1
inactive: dose: 100.0 mg/kg/injection, schedule: Q01DX009 (ip), vehicle: Klucel (hydroxypropylcellulose) (HPC) 101 % of control | [4] 101 % of control | dose: 200.0 mg/kg/injection, schedule: Q01DX009 (ip), vehicle: Klucel (hydroxypropylcellulose) (HPC) 104 % of control | dose: 200.0 mg/kg/injection, schedule: Q04DX003 (ip), vehicle: Klucel (hydroxypropylcellulose) (HPC) 105 % of control | dose: 400.0 mg/kg/injection, schedule: Q01DX009 (ip), vehicle: Klucel (hydroxypropylcellulose) (HPC) 103 % of control | dose: 400.0 mg/kg/injection, schedule: Q04DX003 (ip), vehicle: Klucel (hydroxypropylcellulose) (HPC) 92 % of control

Oc1ccccc1C(=NNc1ccccc1)c1ccccc1O
inactive: [1] 115 % of control | [2] 105 % of control | [3] 103 % of control

CCOC(=O)C1(C(=O)OCC)C(C)CC2Nc3ccccc3C(=O)N21 (centres undefined)
inactive: dose: 25.0 mg/kg/injection, schedule: Q04DX003 (ip), vehicle: Klucel (hydroxypropylcellulose) (HPC) 87 % of control | dose: 50.0 mg/kg/injection, schedule: Q04DX003 (ip), vehicle: Klucel (hydroxypropylcellulose) (HPC) 91 % of control | [4] 91 % of control

Cc1ccc(COC(=O)Nc2ccc(C)c(NC(=O)OCc3ccc(C)cc3)c2)cc1
inactive: dose: 100.0 mg/kg/injection, schedule: Q01DX009 (ip), vehicle: saline with Tween-80 90 % of control | dose: 400.0 mg/kg/injection, schedule: Q01DX009 (ip), vehicle: saline with Tween-80 90 % of control

O=C(Nc1ccccc1)Oc1ccc(Cl)cc1Cc1ccccc1
inactive: [5] 87 % of control | dose: 400.0 mg/kg/injection, schedule: Q04DX002 (ip), vehicle: Klucel (hydroxypropylcellulose) (HPC) 101 % of control

C1CNC(C2=NCCN2)=N1
inactive: dose: 100.0 mg/kg/injection, schedule: Q04DX002 (ip), vehicle: saline 100 % of control | dose: 200.0 mg/kg/injection, schedule: Q04DX002 (ip), vehicle: saline 100 % of control | dose: 400.0 mg/kg/injection, schedule: Q04DX002 (ip), vehicle: saline 90 % of control

CC(C)=Nc1cccc(B(O)O)c1
inactive: [6] 98 % of control | [7] 88 % of control | [8] 95 % of control

CCOC(=O)C1Nc2ccc3ccccc3c2NC1=O (centres undefined)
inactive: [9] 93 % of control | [5] 97 % of control | dose: 200.0 mg/kg/injection, schedule: Q04DX002 (ip), vehicle: Klucel (hydroxypropylcellulose) (HPC) 90 % of control

CCOC(Nc1cc(Cl)ccc1Cl)C(=O)c1ccccc1 (centres undefined)
inactive: [6] 97 % of control | [7] 100 % of control | [8] 96 % of control

CN(C)CCCCl
inactive: dose: 25.0 mg/kg/injection, schedule: Q01DX Z (ip), vehicle: other 102 % of control | dose: 50.0 mg/kg/injection, schedule: Q01DX009 (ip), vehicle: saline 90 % of control | dose: 50.0 mg/kg/injection, schedule: Q01DX Z (ip), vehicle: other 102 % of control | dose: 75.0 mg/kg/injection, schedule: Q04DX003 (ip), vehicle: saline 101 % of control | dose: 100.0 mg/kg/injection, schedule: Q01DX Z (ip), vehicle: other 92 % of control | dose: 150.0 mg/kg/injection, schedule: Q04DX003 (ip), vehicle: saline 93 % of control

CCN(CC#CCOc1ccc(Cl)cc1)c1ccccc1
inactive: dose: 25.0 mg/kg/injection, schedule: Q04DX002 (ip), vehicle: Klucel (hydroxypropylcellulose) (HPC) 99 % of control | [9] 93 % of control | [5] 93 % of control

Cc1ccc(S(=O)(=O)N/N=C2/C3CC4C(C3)C24)cc1
inactive: [6] 90 % of control | [7] 88 % of control | dose: 200.0 mg/kg/injection, schedule: Q01DX009 (ip), vehicle: saline 92 % of control | [8] 103 % of control

Oc1ccccc1/C=N/Nc1ccc2ccccc2n1
inactive: dose: 75.0 mg/kg/injection, schedule: Q01DX001 (ip), vehicle: saline with Tween-80 93 % of control | dose: 150.0 mg/kg/injection, schedule: Q01DX001 (ip), vehicle: saline with Tween-80 90 % of control | dose: 300.0 mg/kg/injection, schedule: Q01DX001 (ip), vehicle: saline with Tween-80 93 % of control

CC(/C=C\C1CCCCC1)=C\C=C\C(C)=C\C=N\Nc1ccc([N+](=O)[O-])cc1[N+](=O)[O-]
inactive: dose: 1.56 mg/kg/injection, schedule: Q01DX001 (ip), vehicle: saline with Tween-80 95 % of control | dose: 3.13 mg/kg/injection, schedule: Q01DX001 (ip), vehicle: saline with Tween-80 95 % of control | dose: 6.25 mg/kg/injection, schedule: Q01DX001 (ip), vehicle: saline with Tween-80 95 % of control | dose: 50.0 mg/kg/injection, schedule: Q01DX001 (ip), vehicle: saline with Tween-80 89 % of control
